≈ marks a conversion by molar mass, not a printed value. Calls of active or inactive are those of the source. No cut-off for these calls is given here.
What was measured:
[1] = Kinetic solubility of the compound after 1 hr by CLND assay; type: physicochemical
[2] = system: Mycobacterium tuberculosis; assay: Antitubercular activity against wild type Mycobacterium tuberculosis H37Rv ATCC 25618 assessed as growth inhibition after 6 days by resazurin dye-based assay; type: functional; details: H37Rv ATCC 25618, 144 h
[3] = biological target: T1, Enoyl-[acyl-carrier-protein] reductase [NADH] (Mycobacterium tuberculosis, UniProt P9WGR1); assay: Inhibition of Mycobacterium tuberculosis full length biotinylated InhA (270 amino acids) using DDCoA as substrate assessed as NADH oxidation by fluorimetric analysis
T1 sequence (P9WGR1 whole entry): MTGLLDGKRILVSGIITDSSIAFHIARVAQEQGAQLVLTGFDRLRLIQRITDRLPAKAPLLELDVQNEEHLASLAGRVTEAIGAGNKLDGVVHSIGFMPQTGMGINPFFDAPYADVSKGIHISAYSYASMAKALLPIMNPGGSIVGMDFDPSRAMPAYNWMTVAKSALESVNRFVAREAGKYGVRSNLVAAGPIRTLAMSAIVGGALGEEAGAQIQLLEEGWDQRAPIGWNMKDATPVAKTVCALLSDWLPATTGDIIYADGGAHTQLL

[4] = Drug degradation assessed as formation of 2-((2S,4R)-1-(benzofuran-3-carbonyl)-4-(3-ethyl-1-methyl-1H-pyrazole-5-carboxamido)pyrrolidine-2-carboxamido)acetic acid; type: physicochemical
HepG2 = assay: Cytotoxicity against human HepG2 cells after 48 hrs by resazurin dye-based fluorescence assay; type: cell-based; details: HepG2, 48 h
[5] = Permeability of the compound by artificial membrane permeability assay; type: physicochemical; details: PAMPA; read-out: permeability
[6] = Intrinsic clearance in human hepatocytes at 1 uM; type: ADME, cell-based, Hepatocyte; details: read-out: CLH
[7] = Intrinsic clearance in mouse hepatocytes at 1 uM; type: ADME, cell-based, Hepatocyte; details: read-out: CLH
Cytochrome P450 3A4 = Cytochrome P450 3A4 (Homo sapiens, UniProt P08684); assay: Inhibition of human CYP3A4 by fluorescence assay; type: ADME
Cytochrome P450 3A4, sequence (P08684 whole entry): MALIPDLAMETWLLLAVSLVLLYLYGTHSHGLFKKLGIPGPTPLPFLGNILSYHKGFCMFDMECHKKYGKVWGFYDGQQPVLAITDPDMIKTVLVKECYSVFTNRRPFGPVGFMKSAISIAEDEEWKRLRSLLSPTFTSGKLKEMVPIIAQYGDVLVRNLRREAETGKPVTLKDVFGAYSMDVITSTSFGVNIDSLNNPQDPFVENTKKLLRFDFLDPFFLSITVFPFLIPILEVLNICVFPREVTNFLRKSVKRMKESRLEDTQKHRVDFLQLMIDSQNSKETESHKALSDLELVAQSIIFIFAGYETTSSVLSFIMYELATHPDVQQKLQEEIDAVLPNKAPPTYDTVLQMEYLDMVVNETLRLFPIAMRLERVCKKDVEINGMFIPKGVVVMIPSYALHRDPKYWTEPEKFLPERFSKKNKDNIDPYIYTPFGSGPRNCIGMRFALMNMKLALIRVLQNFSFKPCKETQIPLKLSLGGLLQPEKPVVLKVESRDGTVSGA

Escherichia coli = assay: Antibacterial activity against Escherichia coli assessed as growth inhibition by broth microdilution assay; type: functional
Cytochrome P450 2C19 = Cytochrome P450 2C19 (Homo sapiens, UniProt P33261); assay: Inhibition of human CYP2C19 by fluorescence assay; type: ADME
Cytochrome P450 2C19, sequence (P33261 whole entry): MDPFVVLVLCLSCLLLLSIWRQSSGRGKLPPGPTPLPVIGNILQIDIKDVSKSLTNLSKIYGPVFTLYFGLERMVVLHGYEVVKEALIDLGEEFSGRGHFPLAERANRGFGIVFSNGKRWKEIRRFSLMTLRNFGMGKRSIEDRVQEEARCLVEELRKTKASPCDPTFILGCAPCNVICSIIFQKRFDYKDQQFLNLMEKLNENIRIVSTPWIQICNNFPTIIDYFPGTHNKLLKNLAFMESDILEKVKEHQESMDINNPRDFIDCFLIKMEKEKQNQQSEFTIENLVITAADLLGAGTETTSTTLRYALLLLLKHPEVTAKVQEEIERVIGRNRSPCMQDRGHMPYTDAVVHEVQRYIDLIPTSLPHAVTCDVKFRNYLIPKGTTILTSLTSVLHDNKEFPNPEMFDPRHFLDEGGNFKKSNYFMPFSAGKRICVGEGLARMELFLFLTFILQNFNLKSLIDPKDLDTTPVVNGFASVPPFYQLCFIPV

Hepatocyte [8] = assay: Drug metabolism in mouse hepatocytes assessed as N-dealkylated ethylamide metabolite formation; type: ADME, cell-based
Cytochrome P450 1A2 = biological target: T2, Cytochrome P450 1A2 (Homo sapiens, UniProt P05177); assay: Inhibition of human CYP1A2 by fluorescence assay; type: ADME
T2 sequence (P05177 whole entry): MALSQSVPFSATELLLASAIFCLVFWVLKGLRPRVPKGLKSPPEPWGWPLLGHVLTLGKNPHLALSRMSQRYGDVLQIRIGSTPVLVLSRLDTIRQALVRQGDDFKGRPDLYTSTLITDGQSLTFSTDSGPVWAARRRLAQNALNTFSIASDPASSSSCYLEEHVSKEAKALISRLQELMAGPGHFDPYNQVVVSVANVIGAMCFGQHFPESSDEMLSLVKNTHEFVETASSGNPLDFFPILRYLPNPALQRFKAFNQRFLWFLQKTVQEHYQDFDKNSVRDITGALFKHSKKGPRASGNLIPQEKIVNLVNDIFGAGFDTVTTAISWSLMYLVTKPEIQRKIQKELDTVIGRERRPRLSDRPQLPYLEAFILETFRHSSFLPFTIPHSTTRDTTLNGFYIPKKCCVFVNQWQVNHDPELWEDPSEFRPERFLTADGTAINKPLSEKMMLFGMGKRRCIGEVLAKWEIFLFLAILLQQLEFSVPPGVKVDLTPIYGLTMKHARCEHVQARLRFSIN

Hepatocyte [9] = assay: Drug metabolism in mouse hepatocytes assessed as N-dealkylated pyrazole metabolite formation; type: ADME, cell-based
[10] = Half life in human liver microsomes at 0.5 uM; type: ADME
Cytochrome P450 2C9 = Cytochrome P450 2C9 (Homo sapiens, UniProt P11712); assay: Inhibition of human CYP2C9 by fluorescence assay; type: ADME
Cytochrome P450 2C9, sequence (P11712 whole entry): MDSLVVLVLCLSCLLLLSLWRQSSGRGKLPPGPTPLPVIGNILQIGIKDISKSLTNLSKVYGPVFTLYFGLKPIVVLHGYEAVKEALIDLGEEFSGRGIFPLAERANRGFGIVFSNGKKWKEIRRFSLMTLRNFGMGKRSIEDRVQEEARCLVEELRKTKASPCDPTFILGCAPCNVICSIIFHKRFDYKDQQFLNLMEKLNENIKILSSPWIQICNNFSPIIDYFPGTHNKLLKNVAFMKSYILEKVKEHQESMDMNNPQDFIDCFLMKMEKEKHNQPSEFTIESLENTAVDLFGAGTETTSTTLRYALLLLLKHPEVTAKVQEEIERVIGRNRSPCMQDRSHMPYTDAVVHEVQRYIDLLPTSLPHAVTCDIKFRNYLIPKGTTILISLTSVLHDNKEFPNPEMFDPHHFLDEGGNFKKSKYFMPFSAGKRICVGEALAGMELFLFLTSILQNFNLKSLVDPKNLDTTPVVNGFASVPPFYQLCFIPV

[11] = Half life in mouse liver microsomes at 0.5 uM; type: ADME, Microsome
[12] = Lipophilicity, log D of the compound at pH 7.4 by chromatographic analysis; type: physicochemical; details: buffer
Enterococcus faecium = assay: Antibacterial activity against Enterococcus faecium assessed as growth inhibition by broth microdilution assay; type: functional
[13] = Half life in mouse hepatocytes at 10 uM; type: ADME, cell-based, Hepatocyte
Cytochrome P450 2D6 = Cytochrome P450 2D6 (Homo sapiens, UniProt P10635); assay: Inhibition of human CYP2D6 by fluorescence assay; type: ADME
Cytochrome P450 2D6, sequence (P10635 whole entry): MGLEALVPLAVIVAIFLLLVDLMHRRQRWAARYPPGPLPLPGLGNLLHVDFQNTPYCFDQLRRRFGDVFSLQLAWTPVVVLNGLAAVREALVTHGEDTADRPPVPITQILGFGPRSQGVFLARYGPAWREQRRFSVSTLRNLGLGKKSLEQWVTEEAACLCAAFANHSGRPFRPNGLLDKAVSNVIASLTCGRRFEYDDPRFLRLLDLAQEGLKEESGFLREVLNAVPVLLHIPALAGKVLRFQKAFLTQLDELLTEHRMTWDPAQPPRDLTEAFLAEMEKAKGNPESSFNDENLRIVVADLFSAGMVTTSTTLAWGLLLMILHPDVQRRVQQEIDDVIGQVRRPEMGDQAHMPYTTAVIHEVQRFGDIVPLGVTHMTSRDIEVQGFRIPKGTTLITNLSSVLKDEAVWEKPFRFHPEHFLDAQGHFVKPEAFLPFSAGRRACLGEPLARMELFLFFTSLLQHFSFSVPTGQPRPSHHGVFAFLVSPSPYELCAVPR

Hepatocyte [14] = assay: Drug metabolism in mouse hepatocytes assessed as oxidized metabolite formation; type: ADME, cell-based
[15] = Half life in human hepatocytes at 10 uM; type: ADME, cell-based, Hepatocyte
Streptococcus pyogenes = assay: Antibacterial activity against Streptococcus pyogenes assessed as growth inhibition by broth microdilution assay; type: functional
Moraxella catarrhalis = assay: Antibacterial activity against Moraxella catarrhalis assessed as growth inhibition by broth microdilution assay; type: functional
Streptococcus pneumoniae = assay: Antibacterial activity against Streptococcus pneumoniae assessed as growth inhibition by broth microdilution assay; type: functional
Hepatocyte [16] = assay: Drug metabolism in human hepatocytes assessed as N-dealkylated pyrazole metabolite formation; type: ADME, cell-based
[17] = biological target: Voltage-gated inwardly rectifying potassium channel KCNH2 (Homo sapiens, UniProt Q12809); assay: Displacement of [3H]-dofetilide from human ERG after 1 hr by liquid scintillation counting analysis
Voltage-gated inwardly rectifying potassium channel KCNH2, sequence (Q12809 whole entry): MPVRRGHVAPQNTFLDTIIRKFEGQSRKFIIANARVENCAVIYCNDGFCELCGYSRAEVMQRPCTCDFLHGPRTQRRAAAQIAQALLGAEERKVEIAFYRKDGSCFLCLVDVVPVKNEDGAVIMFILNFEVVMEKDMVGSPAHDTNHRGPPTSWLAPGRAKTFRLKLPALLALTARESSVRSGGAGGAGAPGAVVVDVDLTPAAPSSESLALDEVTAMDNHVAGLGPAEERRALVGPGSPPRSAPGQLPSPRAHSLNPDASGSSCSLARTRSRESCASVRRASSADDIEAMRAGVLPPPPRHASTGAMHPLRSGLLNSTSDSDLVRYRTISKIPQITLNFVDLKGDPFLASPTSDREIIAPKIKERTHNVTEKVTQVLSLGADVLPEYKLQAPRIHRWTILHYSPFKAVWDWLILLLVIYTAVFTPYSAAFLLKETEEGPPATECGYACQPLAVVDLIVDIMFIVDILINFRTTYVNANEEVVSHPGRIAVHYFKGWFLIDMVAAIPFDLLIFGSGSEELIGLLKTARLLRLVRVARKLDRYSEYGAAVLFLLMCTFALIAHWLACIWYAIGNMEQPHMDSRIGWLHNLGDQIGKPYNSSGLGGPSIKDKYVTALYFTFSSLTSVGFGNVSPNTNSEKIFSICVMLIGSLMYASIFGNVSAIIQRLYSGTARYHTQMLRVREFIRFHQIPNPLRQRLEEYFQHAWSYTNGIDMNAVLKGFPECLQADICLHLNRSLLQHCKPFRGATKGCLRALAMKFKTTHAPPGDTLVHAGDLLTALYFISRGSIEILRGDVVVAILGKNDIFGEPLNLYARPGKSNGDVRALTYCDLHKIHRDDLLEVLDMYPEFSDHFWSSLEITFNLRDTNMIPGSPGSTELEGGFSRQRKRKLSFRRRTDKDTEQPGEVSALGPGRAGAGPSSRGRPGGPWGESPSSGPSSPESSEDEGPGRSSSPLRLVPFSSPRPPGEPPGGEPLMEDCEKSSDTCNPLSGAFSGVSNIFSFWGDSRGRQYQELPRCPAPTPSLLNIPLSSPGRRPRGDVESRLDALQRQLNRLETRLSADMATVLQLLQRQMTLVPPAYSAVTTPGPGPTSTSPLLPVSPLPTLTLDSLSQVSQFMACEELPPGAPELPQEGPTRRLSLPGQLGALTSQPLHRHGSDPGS

Hepatocyte [18] = assay: Drug metabolism in human hepatocytes assessed as N-dealkylated ethylamide metabolite formation; type: ADME, cell-based
[19] = Intrinsic clearance in mouse liver microsomes at 0.5 uM; type: ADME, Microsome
Hepatocyte [20] = assay: Drug metabolism in human hepatocytes assessed as oxidized metabolite formation; type: ADME, cell-based
Haemophilus influenzae = assay: Antibacterial activity against Haemophilus influenzae assessed as growth inhibition by broth microdilution assay; type: functional
Enterococcus faecalis = assay: Antibacterial activity against Enterococcus faecalis assessed as growth inhibition by broth microdilution assay; type: functional
[21] = Plasma protein binding in mouse at 1 uM after 4 to 6 hrs by LC-MS/MS analysis; type: ADME, cell-free; details: read-out: PPB (converted)
Liver microsome = assay: Intrinsic clearance in human liver microsomes at 0.5 uM; type: ADME
[22] = system: Mycobacterium tuberculosis; assay: Bactericidal activity against Mycobacterium tuberculosis H37Rv assessed as log reduction of bacterial CFU at 1.2 ug/mL after 1 week; type: functional, organism-based
[23] = system: Mycobacterium tuberculosis; assay: Antitubercular activity against Mycobacterium tuberculosis H37Rv infected in C57BL/6 mouse assessed as reduction of bacterial CFU in lung at 30 mg/kg, po administered for 8 days measured 24 hrs post last dose relative to control; type: functional

CCc1cc(C(=O)N[C@@H]2C[C@@H](C(=O)NCC(=O)OC)N(C(=O)c3coc4ccccc34)C2)n(C)n1
Kinetic_solubility ([1]; 1 h): soluble | MIC90 [2]: 0.5 µM (≈ 0.241 µg/mL) | IC50 [3]: 0.005 µM | Stability [4]: Unstable

CCNC(=O)[C@@H]1C[C@@H](NC(=O)c2cc(CC)nn2C)CN1C(=O)c1coc2ccccc12
IC50 (HepG2): > 50 µM | Papp [5]: 130 nm/s | CLint scaled at 1 µM [6]: 1.14 L/h/kg | CLint scaled at 1 µM [7]: 32.3 L/h/kg | solubility kinetic at 1 h ([1]; read-out: Kinetic_solubility): > 448 µM | IC50 (Cytochrome P450 3A4): > 50 µM | MIC (Escherichia coli): > 64 µM | IC50 (Cytochrome P450 2C19): > 50 µM | Drug metabolism (Hepatocyte [8]): Active | IC50 (Cytochrome P450 1A2): > 50 µM | Drug metabolism (Hepatocyte [9]): Active | half-life at 0.5 µM [10]: > 30 min | IC50 (Cytochrome P450 2C9): > 50 µM | half-life at 0.5 µM [11]: 28 min | chromatographic logD [12]: 2.93 | MIC (Enterococcus faecium): > 64 µM | MIC [2]: 8 µM (≈ 3.5 µg/mL) | half-life at 10 µM [13]: 27 min | IC50 (Cytochrome P450 2D6): > 50 µM | Drug metabolism (Hepatocyte [14]): Active | IC50 [3]: 0.034 µM | half-life at 10 µM [15]: 227 min | MIC (Streptococcus pyogenes): > 64 µM | MIC (Moraxella catarrhalis): > 64 µM | MIC (Streptococcus pneumoniae): > 64 µM | Drug metabolism (Hepatocyte [16]): Active | IC50 [17]: > 50 µM | Drug metabolism (Hepatocyte [18]): Active | CLH [19]: 2.6 mL/min/g | Drug metabolism (Hepatocyte [20]): Active | MIC (Haemophilus influenzae): > 64 µM | MIC (Enterococcus faecalis): > 64 µM | fraction unbound at 1 µM [21]: 0.144 | CLH (Liver microsome): 0.7 mL/min/g

CCNC[C@@H]1C[C@@H](NC(=O)c2cc(CC)nn2C)CN1C(=O)c1coc2ccccc12
MIC90 [2]: > 31 µM | IC50 [3]: 0.44 µM

CCCn1nc(CC)cc1C(=O)N[C@@H]1C[C@@H](C(=O)NCC(=O)OC)N(C(=O)c2coc3ccccc23)C1
MIC90 [2]: 1 µM (≈ 0.51 µg/mL) | IC50 [3]: 0.011 µM

CCc1cc(C(=O)N[C@@H]2C[C@@H](C(=O)NCc3ccccn3)N(C(=O)c3coc4ccccc34)C2)n(CC)n1
MIC90 [2]: 0.7 µM (≈ 0.36 µg/mL) | IC50 [3]: 0.002 µM

COc1c(N2C[C@@H]3CCCN[C@@H]3C2)c(F)cc2c(=O)c(C(=O)O)cn(C3CC3)c12 [MOXIFLOXACIN]
Activity [22]: Active | fold change (FC) [23]: 3.48

CCOC(=O)CCNC(=O)[C@@H]1C[C@@H](NC(=O)c2cc(CC)nn2C)CN1C(=O)c1coc2ccccc12
MIC90 [2]: 4 µM (≈ 2.04 µg/mL) | IC50 [3]: 0.022 µM

CCc1cc(C(=O)N[C@@H]2C[C@@H](C(=O)NCCNC(C)=O)N(C(=O)c3coc4ccccc34)C2)n(C)n1
MIC90 [2]: 4 µM (≈ 1.98 µg/mL) | IC50 [3]: 0.02 µM

CCc1cc(C(=O)N[C@@H]2C[C@@H](C(=O)Nc3ccc4c(c3)B(O)OC4)N(C(=O)c3coc4ccccc34)C2)n(C)n1
MIC90 [2]: 4 µM (≈ 2.17 µg/mL) | IC50 [3]: 0.026 µM

CCc1cc(C(=O)N[C@@H]2C[C@@H](C(N)=O)N(C(=O)c3coc4ccccc34)C2)n(C)n1
MIC90 [2]: 3 µM (≈ 1.23 µg/mL) | IC50 [3]: 0.012 µM

CCc1cc(C(=O)N[C@@H]2C[C@@H](C(=O)NCCc3ccc(F)cc3)N(C(=O)c3coc4ccccc34)C2)n(C)n1
MIC90 [2]: 1 µM (≈ 0.532 µg/mL) | IC50 [3]: 0.006 µM

CCc1cc(C(=O)N[C@@H]2C[C@@H](C(=O)NCc3nc(C)no3)N(C(=O)c3coc4ccccc34)C2)n(C)n1
MIC90 [2]: 2 µM (≈ 1.01 µg/mL) | IC50 [3]: 0.007 µM

CCc1cc(C(=O)N[C@@H]2C[C@@H](C(=O)NC3CCCC3)N(C(=O)c3coc4ccccc34)C2)n(C)n1
MIC90 [2]: 4 µM (≈ 1.91 µg/mL) | IC50 [3]: 0.04 µM

CCc1cc(C(=O)N[C@@H]2C[C@@H](C(=O)NC3CCOC3=O)N(C(=O)c3coc4ccccc34)C2)n(C)n1 (stereo partly specified)
MIC90 [2]: > 31 µM | IC50 [3]: 0.08 µM

CCCNC(=O)[C@@H]1C[C@@H](NC(=O)c2cc(CC)nn2C)CN1C(=O)c1coc2ccccc12
MIC90 [2]: 15.6 µM (≈ 7.04 µg/mL) | IC50 [3]: 0.021 µM

CCc1cc(C(=O)N[C@@H]2C[C@@H](C(=O)N(CC)CC)N(C(=O)c3coc4ccccc34)C2)n(C)n1
MIC90 [2]: > 31 µM | IC50 [3]: 0.948 µM
